# Measured values as given in US10858628B2, “Methods and compositions for inducing hematopoietic cell differentiation” (Fate Therapeutics, Inc., priority 2015, dated 2020).
# Columns and labels:
# Assay type in all cases: cell-based, human
# hiPSCs [1] = experiment: WNT signaling modulation from day 6 of differentiation, CD34+CD43-CD93- HE analyzed at Day 10
# Procedure: To optimize the efficient generation of definitive HE from hiPSCs after 10 days of directed differentiation, the effect of modulation of the WNT signaling pathway was examined. At day 6 of differentiation, cell cultures were differentiated in the presence of the GSK3 inhibitor CHIR99021, a Wnt agonist, or IWP2, a WNT inhibitor (FIG. 29A). The generation of CD34+CD43−CD93− HE was analyzed at Day 10.
# Day 10 CD34+CD43- cells [2] = experiment: iNK differentiation of WNT modulated HE
# Procedure: Specific to NK cells, upon sorting, the HE cells were cultured on low attachment tissue culture plates in iNK-A2 serum-free differentiation media containing SCF, TPO, Flt3L, IL3, IL15, and IL7 (FIG. 3). After 5 days, the cells were transferred to adherent cultures containing DLL4-expressing stromal cells in iNK-B2 differentiation media containing SCF, IL3, IL15, Flt3L and IL7 to complete NK cell differentiation. After approximately 10-15 days of culturing (post HE isolation) the cell culture was assessed for the generation of NK cell progenitors followed by mature NK subsets following an additional 10-15 days of culturing. CD56 and CD161 (NKR-P1A) are the first cell surface markers to be expressed during early NK cell development followed by the expression of CD16, KIR, CD8 and NKG2D (CD314) on later mature NK cell subsets. FIG. 11 depicts the in vitro differentiation capability of the Day 10 HE population to give rise to early NK cell progenitors and mature NK cell subsets by analysis of a CD45+ population generated in the co-cultures.
# (§1) To determine the potency of the WNT modulated HE, the pan-hematopoietic and lymphoid potential of the untreated, IWP2- and CHIR99021-treated HE was each assessed. Day 10 CD34+CD43− cells were isolated by FACS and plated in MPP differentiation and iNK differentiation cultures as provided herein.
# Day 10 CD34+CD43- cells [3] = experiment: MPP differentiation of WNT modulated HE
# Procedure: Approximately 30,000 CD34+ HE cells were plated as a monolayer in iMPP-A media and further cultured for 6-8 days. FIG. 6A illustrates the phenotypic alterations in the monolayer cultures with the emergence of round hematopoietic cells and flow cytometric staining identifies the presence of CD45+ over the 6-8 day culture period.
# as §1
# hiPSCs [4] = experiment: hiPSC monolayer hematopoietic differentiation (iCD34 platform), CD34+ HE population at D10 by flow cytometry
# Procedure: The iCD34 platform is an optimized system for hematopoietic lineage cells differentiation. To initiate differentiation towards the hematopoietic lineage, hiPSCs were seeded as a monolayer on Day (D) 0 in the maintenance medium and allowed to adhere and expand for about 24 hours. At this point, the maintenance medium was removed and replaced with base medium without maintenance factors at D1. Hematopoietic differentiation was initiated at around D2 by switching the culture medium to iCD34−A (see FIG. 1). […] The monolayers were maintained until around D5-D6 at which point they were dissociated into single cells and seeded as a low density monolayer in iCD34−C medium until differentiation around D10. Low oxygen tension (2-10% O2) was maintained from the onset of hematopoietic differentiation around D2 up until around D10 of differentiation.
# During the culture process, the directed differentiation towards the hematopoietic lineage was monitored by the dissociation of the monolayers into single cells and analysis for the surface marker expression of CD34, and optionally, CD43, CD45, CXCR4, CD73 and/or CD93 (FIG. 4A). At around D8 of differentiation, the appearance of a cell population representing HE was observed by the cell surface expression signature CD34+. CD43−CXCR4−CD73− was also observed in the CD34+ cells. The CD34+ population was maintained until around D10 (FIG. 4A). At D10, which time point can be shortened to about D9 or extended until about D12, the cells were dissociated into single cells and the CD34+ HE population was sorted by FACS using a BD FACS Aria for further analysis and functional assessment.
# To optimize the efficient generation of HE from hiPSCs after around 10 days of differentiation several parameters were examined. The optimal plating density of the monolayers at D0 of differentiation was assessed by plating increasing numbers of hiPSCs from 7.5×10^4/well to 1.5×10^5/well on Matrigel™-coated 6 well culture dishes and then analyzing the generation of the CD34+ HE population at about D10. […] Despite this decrease, the highest conversion rate of hiPSCs to HE after 10 days of monolayer differentiation was at the highest plating density tested at 1.5×10^5/well (FIG. 4C).
# The effect of the concentration of BMP4 modulation during the initial stages of hematopoietic differentiation on the generation of HE was assessed by treating the cultures with increasing concentrations of BMP4 ranging from 0 ng/ml to 30 ng/ml from about D2 to about D6 of differentiation. The generation of HE at D10 was assessed by the detection of the CD34+ HE population.
# The Wnt pathway activator CHIR99021 is responsible for the induction of the definitive hematopoietic program from hiPSCs. The effect of the modulation of CHIR during the induction phase of the hematopoietic differentiation protocol was assessed by treating the cultures with increasing concentrations of CHIR from about D3.75 to about D6.
# [5] = system: umbilical cord blood CD34+ cells; experiment: Stromal-free NK differentiation on plate-bound DLL4 protein, cord blood cells; settings: versus stromal-based and stromal-free control cultures
# Procedure: Specific to NK cells, enriched umbilical cord blood CD34+ cells were plated in iNK-A2 serum-free differentiation media containing SCF, Flt3L, TPO, IL3, IL15 and IL7 in culture plates containing DLL4 protein or control protein. After 5 days the iNK-B2 medium was maintained to complete NK cell differentiation. After approximately 10-15 days of culture, the culture was assessed for the generation of NK cell progenitors and the absence of myeloid cells. CD56, CD7 and CD161 are the first cell surface markers to be expressed during NK cell development. CD11b and CD14 are cell surface markers expressed on myeloid cell subsets. FIG. 18 depicts stromal-free differentiation of umbilical cord blood CD34+ cells towards NK cells. […] Early NK lineage markers identify the presence of ipro-NK cells as defined by CD56, CD7 and CD161 and the absence of myeloid markers CD11b and CD14.
# [6] = system: Day 10 CD34+ iHE sorted cells; experiment: Stromal-free NK differentiation on plate-bound DLL4 protein, hiPSC-derived cells
# Description: Then the hiPSC-derived CD34+ cells were differentiated towards the NK cell lineage for 20 days and then placed in suspension culture for further maturation. […] After 5 days iNK-B2 media was maintained to complete NK cell differentiation. Markers for identifying the presence of mature NK cells include CD56, CD122, NKp30, CD94, CD16, NKG2D and KIR.
# [7] = CHIR from about D3.75 to about D6
molecule,measurement,setting,value
Cc1ccc2nc(NC(=O)CSc3nc4c(c(=O)n3-c3ccccc3)SCC4)sc2c1 [IWP2],HE cell numbers at Day 10,hiPSCs [1]; treated from day 6,overall decrease in HE cell numbers
same,percentage of phenotypic HE at Day 10,hiPSCs [1]; treated from day 6,did not affect the percentage of phenotypic HE
Cc1c[nH]c(-c2cnc(NCCNc3ccc(C#N)cn3)nc2-c2ccc(Cl)cc2Cl)n1 [CHIR99021],production of NK progenitor cells from the modulated HE (FIG. 30B legend),Day 10 CD34+CD43- cells [2],increased the production of NK progenitor cells
same,increased presence of CD56+CD7+ NK progenitor cells (lymphoid capacity),Day 10 CD34+CD43- cells [2]; after 20 days of iNK differentiation,5-6 fold
same,production of CD45+ cells from the modulated HE (FIG. 30A legend),Day 10 CD34+CD43- cells [3],increased the production of CD45+ cells
same,increased presence of CD45+ cells (hematopoietic potency),Day 10 CD34+CD43- cells [3]; after 7 days of MPP differentiation,5-6 fold
same,number and percentage of phenotypic CD34+CD43-CD93- HE (FIG. 29B legend),hiPSCs [1],increased the number and the percentage
same,"HE cellularity (total HE cell number, HE proliferation)",hiPSCs [1]; treated from day 6,improved HE cellularity
same,percentage of CD34+CD43- cells at Day 10,hiPSCs [1]; treated from day 6,slight decrease
same,increase in number and percentage of phenotypic CD34+CD43-CD93- HE,"hiPSCs [1]; treated from day 6, Day 10",2-3 fold
same,effect of increasing concentration on percentage of the HE subpopulation,hiPSCs [4]; [7],decreases the percentage of the HE subpopulation
same,effect of increasing concentration on total percentage of CD34+ cells,hiPSCs [4]; [7],increases the total percentage of CD34+ cells
same,optimal concentration of CHIR99021 for HE subpopulation,hiPSCs [4]; [7],approximately 1 uM
"DLL4: plate-bound DLL4 protein, Notch activator",differentiation of CD56+CD7+CD161+ NK cell progenitors,[5],supports a more rapid and efficient differentiation
same,differentiation of NK cell progenitors versus myeloid cells,[6],supports the differentiation of CD56+CD7+CD161+ NK cell progenitors but not CD11b+ myeloid cells
"BMP4: bone morphogenetic protein, BMP pathway activator (protein, UniProt P12644 293-408, looked up) Bone morphogenetic protein 4: SPKHHSQRARKKNKNCRRHSLYVDFSDVGWNDWIVAPPGYQAFYCHGDCPFPLADHLNSTNHAIVQTLVNSVNSSIPKACCVPTELSAISMLYLDEYDKVVLKNYQEMVVEGCGCR",optimal concentration of BMP4 for HE population at D10,hiPSCs [4]; BMP4 0 ng/ml to 30 ng/ml from about D2 to about D6,about 3 ng/mL
same,effect of increasing BMP4 concentration on HE population at D10,"hiPSCs [4]; BMP4 from D2 to D6, below a threshold concentration",increases the HE population at D10
